Experimental data taken from patent publication US10202347B2, “Compound, production method therefor, and use of said compound” (MICROBIAL CHEMISTRY RESEARCH FOUNDATION, priority 2013, dated 2019).
Where two headings read alike, the source gives them in different places.

What was measured:
[1] = tested on: human stomach cancer cells MKN-74 and normal stromal cells derived from the human stomach, Hs738; experiment: Anti-cancer activity in vivo, Test Example 2-2: MKN-74 and stromal cells Hs738, subcutaneous tumor in nude mice; design: species or system BALB/c nu/nu nude mice; conditions: tumor transplanted together with stromal cells Hs738, intravenous administration at 12.5 mg/kg, FIGS. 1C, 1D
Method: A test was performed in the same manner as in Test Example 2-1 except that the use of the human stomach cancer cells MKN-74 alone in Test Example 2-1 was changed to use of the human stomach cancer cells MKN-74 and the normal stromal cells derived from the human stomach, Hs738.
Note that, a cell liquid and inoculation of the cell liquid to mice were as follows.
Cultured human stomach cancer cells MKN-74 and normal stromal cells derived from the human stomach, Hs738 were respectively trypsinized to be peeled off from the culture dishes. The above human stomach cancer cells MKN-74 (8×10^6 cells) and the above normal stromal cells derived from the human stomach, Hs738 (8×10^6 cells) were dispersed in 0.3 mL DMEM containing 10% FBS and mixed with 0.5 mL growth factor-reduced Matrigel (product of BD Biosciences Co.).
The above mixed cell liquid (0.1 mL) (a mixture of cancer cells: 1×10^6 cells, and stromal cells: 1×10^6 cells) was subcutaneously inoculated to the left groin region of the above mice.

[2] = tested on: H. influenza ARD476 strain; experiment: Measurement of MIC for H. influenza ARD476; format: cell-based; conditions: Haemophilus influenzae, ARD476STRAIN, read-out: MIC H. influenzae ARD476
Method: Each of the above compounds was measured for minimum inhibitory concentration (MIC) for Haemophilus influenza.
Haemophilus influenza T-196 strain and H. influenza ARD476 strain each were statically cultured in a HI medium (Muller Hinton medium (product of Becton, Dickinson Co.) supplemented with 5% Fildes enrichment (product of Becton, Dickinson Co.)) at 37° C. overnight under aerobic conditions containing 5% carbon dioxide gas.
After completion of the culturing, the culture was suspended with the HI medium and diluted so that each Haemophilus influenza strain was 2×10^6 CFU/mL to 9×10^6 CFU/mL.
Each of the test samples (each of the above compounds, clarithromycin, and ampicillin) was prepared with the HI medium to have a concentration of 256 mg/L. From this concentration, the test sample was 2-fold diluted serially in 11 steps to 0.125 mg/L.
The above-diluted culture was added at 50 μL/well to 50 μL/well of the HI medium containing each of the test samples at the above concentrations, and was statically cultured for 18 hours at 37° C. under aerobic conditions containing 5% carbon dioxide gas.
(§1) After completion of the culturing, the presence or absence of proliferation of each bacterium was visually determined based on turbidity, and the MIC for each bacterial strain was obtained.

[3] = tested on: human stomach cancer cells MKN-74; experiment: Cell proliferation test, monoculture test (GFP fluorescence); format: cell-based
Method: Human stomach cancer cells MKN-74 (Riken Cell Bank) were cultured at 37° C. and 5% CO2 in DMEM supplemented with 10% FBS (product of GIBCO Co.), 100 units/mL penicillin G (product of Invitrogen Co.), and 100 μg/mL streptomycin (product of Invitrogen Co.).
The above cancer cells were allowed to undergo gene transfer of Green fluorescence protein (GFP) expression vector, pEGFP-C1 (product of BD Biosciences Co.) using the Lipofectamine reagent (product of Invitrogen Co.), to thereby clone cells stably expressing GFP.
Only DMEM containing 1% dialyzed serum, 5 μg/mL insulin, 5 μg/mL transferrine (product of Wako Pure Chemical Industries Co.), and 1.4 μM hydrocortisone (product of Sigma Co.) was placed in a 96-well plate at 0.1 mL/well, and respective evaluation samples (the compounds expressed by Structural Formulas (1) to (13)) were added thereto at respective concentrations, followed by maintaining at 37° C. and 5% CO2 for 2 days.
Next, the above human stomach cancer cells MKN-74 were dispersed in DMEM at 5×10^5 cells/mL, and were placed in the above plate at 10 μL/well, followed by further coculturing at 37° C. and 5% CO2 for 3 days.
Measurement of cell proliferation rates in the above coculture test and monoculture test was performed in the following manner.
The medium was removed from the wells of the above plate, and a cytolysis liquid (10 mM Tris-HCl [pH 7.4], 150 mM NaCl, 0.9 mM CaCl2, and 1% Triton X-100) was added thereto at 0.1 mL/well to lyse the cells. The fluorescence intensity of GFP was measured at an excitation wavelength of 485 nm and a fluorescence wavelength of 538 nm, and the cell proliferation rates were calculated from the following formula. Cell proliferation rate (%)=(Fluorescence intensity in the presence of the evaluation sample/Fluorescence intensity in the absence of the evaluation sample)×100

[4] = tested on: Enterococcus faecalis JCM5803 strain; experiment: Measurement of MIC for Enterococcus faecalis; format: cell-based; conditions: read-out: MIC Enterococcus faecalis JCM5803
Method: Each of the above compounds was measured for minimum inhibitory concentration (MIC) for Enterococcus faecalis.
Enterococcus faecalis JCM5803 strain was cultured under shaking in a heart infusion broth medium (product of Becton, Dickinson Co.) at 37° C. overnight.
After completion of the culturing, the culture was diluted with the heart infusion broth medium so that the bacteria were 2×10^4 CFU/mL to 9×10^4 CFU/mL.
Each of the test samples (each of the above compounds, clarithromycin, and ampicillin) was prepared with the heart infusion broth medium to have a concentration of 256 mg/L. From this concentration, the test sample was 2-fold diluted serially in 11 steps to 0.125 mg/L.
The above-diluted culture was added at 50 μL/well to 50 μL/well of the heart infusion broth medium containing each of the test samples at the above concentrations, and was statically cultured at 37° C. for 18 hours.
as §1

[5] = tested on: Escherichia coli K-12 strain; experiment: Measurement of MIC for Escherichia coli; format: cell-based; conditions: K12STRAIN, read-out: MIC Escherichia coli K-12
Method: (§2) Each of the above compounds was measured for minimum inhibitory concentration (MIC) for Staphylococcus aureus and Escherichia coli.
(§3) Staphylococcus aureus FDA209P strain and Escherichia coli K-12 strain each were cultured under shaking in a nutrient broth medium (polypeptone (product of NIHON PHARMACEUTICAL Co.) 1%, fish extract for bacteria (product of KYOKUTO PHARMACEUTICAL INDUSTRIAL Co.) 1%, and sodium chloride 0.2%) at 37° C. overnight.
(§4) After completion of the culturing, the culture was diluted with the nutrient broth medium so that the bacteria were 2×10^6 CFU/mL to 9×10^6 CFU/mL.
(§5) Each of the test samples (each of the above compounds, clarithromycin, and ampicillin) was prepared with the nutrient broth medium to have a concentration of 256 mg/L. From this concentration, the test sample was 2-fold diluted serially in 11 steps to 0.125 mg/L.
(§6) The above-diluted culture was added at 50 μL/well to 50 μL/well of the nutrient broth medium containing each of the test samples at the above concentrations, and was statically cultured at 37° C. overnight. After completion of the culturing, the presence or absence of proliferation of each bacterium was visually determined based on turbidity, and the MIC for each bacterial strain was obtained.

[6] = tested on: Staphylococcus aureus FDA209P strain; experiment: Measurement of MIC for Staphylococcus aureus; format: cell-based; conditions: read-out: MIC Staphylococcus aureus FDA209P
Method: as §2, §3, §4, §5, §6

[7] = HI medium, 18 hours, 37° C., 5% carbon dioxide
[8] = JCM5803, heart infusion broth medium, 37° C., 18 hours
[9] = nutrient broth medium, 37° C. overnight
[10] = monoculture test, MKN-74 alone, cell proliferation rate, average of duplicate, read-out: Mono IC50

| Compound | tumor suppression (tumor volume, tumor weight Day 21) [1] | MIC [2, 7] | IC50 ([3]; MKN-74, read-out: Mono IC50) | MIC [4, 8] | MIC [5, 9] | MIC [6] | IC50 [3, 10] | MIC ([2]; 18 h) | MIC ([4]; JCM5803, 18 h) | MIC [5] | MIC [6, 9] |
| --- | --- | --- | --- | --- | --- | --- | --- | --- | --- | --- | --- |
| CCCCCCCc1c(C)c(=O)c2ccccc2n1CN=C(SC)SC [Structural Formula (13)] | significant suppression | > 128 µg/mL | 1.36 µg/mL | > 128 µg/mL | > 128 µg/mL | 4 µg/mL | – | – | – | – | – |
| CCCCCCCCc1c(C)c(=O)c2ccccc2n1CC(=O)OC [Structural Formula (5)] | – | > 128 µg/mL | – | > 128 µg/mL | > 128 µg/mL | > 128 µg/mL | > 100 µg/mL | – | – | – | – |
| CCCCCCCc1c(C)c(=O)c2ccccc2n1CNC(=S)SC [Structural Formula (12)] | – | > 128 µg/mL | 39.5 µg/mL | > 128 µg/mL | > 128 µg/mL | > 128 µg/mL | – | – | – | – | – |
| CCCCCCCCc1c(C)c(=O)c2ccccc2n1CC(=O)O [Structural Formula (6)] | – | 128 µg/mL | – | > 128 µg/mL | 128 µg/mL | 128 µg/mL | 71 µg/mL | – | – | – | – |
| CCCCCCCc1c(C)c(=O)c2ccccc2n1CN=C=S [Structural Formula (11)] | – | – | – | – | – | – | 89.5 µg/mL | > 128 µg/mL | > 128 µg/mL | > 128 µg/mL | 4 µg/mL |
| Cc1c(CC(C)C)[nH]c2ccccc2c1=O [Structural Formula (4)] | – | 128 µg/mL | – | > 128 µg/mL | 128 µg/mL | 128 µg/mL | > 100 µg/mL | – | – | – | – |
| CCCCCCCCc1nc2ccccc2c(OCC(=O)O)c1C [Structural Formula (2)] | – | 64 µg/mL | – | > 128 µg/mL | 128 µg/mL | – | 2.95 µg/mL | – | – | – | > 128 µg/mL |
| Cc1c(CCCC/C=C/C(C)C)[nH]c2ccccc2c1=O [Structural Formula (3)] | – | > 128 µg/mL | – | > 128 µg/mL | > 128 µg/mL | > 128 µg/mL | > 100 µg/mL | – | – | – | – |
